The values that follow come from patent publication US20210317134A1, “UBIQUITIN-SPECIFIC-PROCESSING PROTEASE 7 (USP7) MODULATORS AND USES THEREOF” (RAPT THERAPEUTICS, INC., priority 2019, published 2021).

This test concerns the target USP7 (Homo sapiens, UniProt Q93009). The experiment in a line: USP7 inhibitory potency (Table 1). In kind it is biochemical.

Chain of USP7 (Q93009 whole entry): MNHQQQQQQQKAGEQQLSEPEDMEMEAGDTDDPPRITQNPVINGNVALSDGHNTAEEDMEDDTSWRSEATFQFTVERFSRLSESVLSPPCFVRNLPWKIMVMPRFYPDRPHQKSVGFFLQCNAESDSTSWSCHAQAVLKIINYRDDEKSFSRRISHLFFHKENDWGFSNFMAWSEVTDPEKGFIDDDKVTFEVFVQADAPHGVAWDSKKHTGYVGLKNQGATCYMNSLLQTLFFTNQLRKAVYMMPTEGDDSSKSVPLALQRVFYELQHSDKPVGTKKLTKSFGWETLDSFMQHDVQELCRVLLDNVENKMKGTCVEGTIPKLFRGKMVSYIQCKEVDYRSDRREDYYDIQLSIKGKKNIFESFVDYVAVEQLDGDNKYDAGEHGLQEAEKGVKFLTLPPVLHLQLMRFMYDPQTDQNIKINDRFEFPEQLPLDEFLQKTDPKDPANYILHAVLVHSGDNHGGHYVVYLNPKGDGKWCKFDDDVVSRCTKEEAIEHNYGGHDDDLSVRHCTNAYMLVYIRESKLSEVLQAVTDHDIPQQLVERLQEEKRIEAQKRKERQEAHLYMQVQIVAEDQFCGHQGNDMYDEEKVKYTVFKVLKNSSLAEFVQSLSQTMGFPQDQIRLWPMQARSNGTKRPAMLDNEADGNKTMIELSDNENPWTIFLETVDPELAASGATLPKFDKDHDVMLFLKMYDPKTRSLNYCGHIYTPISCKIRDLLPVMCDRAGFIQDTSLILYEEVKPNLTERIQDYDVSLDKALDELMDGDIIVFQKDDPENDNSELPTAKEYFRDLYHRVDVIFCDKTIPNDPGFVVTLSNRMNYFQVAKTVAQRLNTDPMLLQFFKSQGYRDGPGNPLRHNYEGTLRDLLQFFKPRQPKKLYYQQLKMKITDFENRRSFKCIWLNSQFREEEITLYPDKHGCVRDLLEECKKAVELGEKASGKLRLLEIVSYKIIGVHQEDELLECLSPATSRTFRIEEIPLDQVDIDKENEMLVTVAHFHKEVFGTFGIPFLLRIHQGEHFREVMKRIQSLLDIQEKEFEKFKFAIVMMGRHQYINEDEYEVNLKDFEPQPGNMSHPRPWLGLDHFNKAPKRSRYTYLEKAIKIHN

By IC50 is commonly meant the midpoint of a concentration-inhibition curve. High values mean a need for much substance, low ones inhibition by little substance. In turn, `O=C(C1Cc2cc(Cl)cc(-c3ccnc4[nH]ccc34)c2O1)N1CCC(O)(c2ccccc2F)CC1` (centres unmarked) [(5-chloro-7-(1H-pyrrolo[2,3-b]pyridin-4-yl)-2,3-dihydrobenzofuran-2-yl)(4-(2-fluorophenyl)-4-hydroxypiperidin-1-yl)methanone] came in with an IC50 of 1000 to 10000 nM. In the case of `CC(=O)NCC1Cc2nccc(-c3cc(Cl)cc4c3O[C@@H](C(=O)N3CCNCC3)C4)c2C1` (stereo partly drawn) [N-((4-((R)-5-chloro-2-(piperazine-1-carbonyl)-2,3-dihydrobenzofuran-7-yl)-6,7-dihydro-5H-cyclopenta[b]pyridin-6-yl)methyl)acetamide] it was 1000 to 10000 nM; in that of `Clc1cc2c(c(-c3ccnc4ccnn34)c1)OC(c1onc3c1CNCC3)C2` (centres unmarked) [3-(5-chloro-7-(pyrazolo[1,5-a]pyrimidin-7-yl)-2,3-dihydrobenzofuran-2-yl)-4,5,6,7-tetrahydroisoxazolo[4,3-c]pyridine], 1000 to 10000 nM; in that of `O=C(C1Cc2cc(Cl)cc(-c3ccnc4[nH]c(C5CC5)cc34)c2O1)N1CCNCC1` (centres unmarked) [(5-chloro-7-(2-cyclopropyl-1H-pyrrolo[2,3-b]pyridin-4-yl)-2,3-dihydrobenzofuran-2-yl)(piperazin-1-yl)methanone], 10000 to 30000 nM. Take `O=C(C1Cc2cc(Cl)cc(-c3ccnc4[nH]c(CO)cc34)c2O1)N1CCNCC1` (centres unmarked) [(5-chloro-7-(2-(hydroxymethyl)-1H-pyrrolo[2,3-b]pyridin-4-yl)-2,3-dihydrobenzofuran-2-yl)(piperazin-1-yl)methanone]: the IC50 is less than 1000 nM. The value for `CN(C)[C@@H]1CCN(C(=O)[C@H]2Cc3cc(Cl)cc(-c4ccnc5cc(CO)sc45)c3O2)C1` [((R)-5-chloro-7-(2-(hydroxymethyl)thieno[3,2-b]pyridin-7-yl)-2,3-dihydrobenzofuran-2-yl)((R)-3-(dimethylamino)pyrrolidin-1-yl)methanone] was less than 1000 nM. The value for `CN(C)C1CN(C(=O)[C@H]2Cc3cc(Cl)cc(-c4ccnc5ccsc45)c3O2)C1` [(R)-(5-chloro-7-(thieno[3,2-b]pyridin-7-yl)-2,3-dihydrobenzofuran-2-yl)(3-(dimethylamino)azetidin-1-yl)methanone] was less than 1000 nM.

`Cn1nc2c(c1[C@H]1Cc3cc(Cl)cc(-c4ccnc5ccsc45)c3O1)CNCC2` [(R)-7-(5-chloro-2-(2-methyl-4,5,6,7-tetrahydro-2H-pyrazolo[4,3-c]pyridin-3-yl)-2,3-dihydrobenzofuran-7-yl)thieno[3,2-b]pyridine]: the IC50 is less than 1000 nM. Compound `N#Cc1cc2nccc(-c3cc(Cl)cc4c3O[C@@H](c3onc5c3CNCC5)C4)c2cc1F` [(R)-4-(5-chloro-2-(4,5,6,7-tetrahydroisoxazolo[4,3-c]pyridin-3-yl)-2,3-dihydrobenzofuran-7-yl)-6-fluoroquinoline-7-carbonitrile] displayed a half-maximal inhibitory concentration (IC50) of less than 1000 nM. The value for `CCC(O)c1ccc2c(-c3cc(Cl)cc4c3O[C@@H](C(=O)N3CCNCC3)C4)ccnc2c1` (stereo partly drawn) [((2R)-5-chloro-7-(7-(1-hydroxypropyl)quinolin-4-yl)-2,3-dihydrobenzofuran-2-yl)(piperazin-1-yl)methanone] was 1000 to 10000 nM; that for `Clc1cc2c(c(-c3ncnc4cc(Cl)ccc34)c1)O[C@@H](c1onc3c1CNCC3)C2` [(R)-3-(5-chloro-7-(7-chloroquinazolin-4-yl)-2,3-dihydrobenzofuran-2-yl)-4,5,6,7-tetrahydroisoxazolo[4,3-c]pyridine] was 1000 to 10000 nM. In the case of `O=C([C@H]1Cc2cc(Cl)cc(-c3ccnc4cc(CO)sc34)c2O1)N1CCC(N2CCCC2)CC1` [(R)-(5-chloro-7-(2-(hydroxymethyl)thieno[3,2-b]pyridin-7-yl)-2,3-dihydrobenzofuran-2-yl)(4-(pyrrolidin-1-yl)piperidin-1-yl)methanone] it was less than 1000 nM; in that of `O=C(C1Cc2cc(Cl)cc(-c3ccnc4[nH]ccc34)c2O1)N1CCC2(CC1)CNC2` (centres unmarked) [(5-chloro-7-(1H-pyrrolo[2,3-b]pyridin-4-yl)-2,3-dihydrobenzofuran-2-yl)(2,7-diazaspiro[3.5]nonan-7-yl)methanone], 1000 to 10000 nM; in that of `O=C(C1Cc2cc(Cl)cc(-c3ccnc4cccnc34)c2O1)N1CCNCC1` (centres unmarked) [(5-chloro-7-(1,5-naphthyridin-4-yl)-2,3-dihydrobenzofuran-2-yl)(piperazin-1-yl)methanone], 10000 to 30000 nM.

Turning to `O=C([C@H]1Cc2cc(Cl)cc(-c3ccnc4cc(Cn5c(=O)cc[nH]c5=O)sc34)c2O1)N1CCNCC1` [(R)-3-((7-(5-chloro-2-(piperazine-1-carbonyl)-2,3-dihydrobenzofuran-7-yl)thieno[3,2-b]pyridin-2-yl)methyl)pyrimidine-2,4(1H,3H)-dione], the IC50 was less than 1000 nM. In the case of `O=C(C1Cc2cc(Cl)cc(-c3ccnc(Cn4cnc5ccccc5c4=O)c3)c2O1)N1CCNCC1` (centres unmarked) [3-((4-(5-chloro-2-(piperazine-1-carbonyl)-2,3-dihydrobenzofuran-7-yl)pyridin-2-yl)methyl)quinazolin-4(3H)-one] it was 10000 to 30000 nM; in that of `CCC(O)c1cc2ncnc(-c3cc(Cl)cc4c3O[C@@H](c3onc5c3CNCC5)C4)c2s1` (stereo partly drawn) [drawing 1579, 1-(4-((R)-5-chloro-2-(4,5,6,7-tetrahydroisoxazolo[4,3-c]pyridin-3-yl)-2,3-dihydrobenzofuran-7-yl)thieno[3,2-d]pyrimidin-6-yl)propan-1-ol], less than 1000 nM. The value for `O=C(C1Cc2cc(Cl)cc(-c3ccnc4c(F)cccc34)c2O1)N1CCNCC1` (centres unmarked) [(5-chloro-7-(8-fluoroquinolin-4-yl)-2,3-dihydrobenzofuran-2-yl)(piperazin-1-yl)methanone] was 10000 to 30000 nM; that for `O=C(C1Cc2cc(Cl)cc(-c3ccnc4[nH]ccc34)c2O1)N1CCCC(C2CNC2)C1` (centres unmarked) [(3-(azetidin-3-yl)piperidin-1-yl)(5-chloro-7-(1H-pyrrolo[2,3-b]pyridin-4-yl)-2,3-dihydrobenzofuran-2-yl)methanone] was 10000 to 30000 nM. The value for `CN(C)C(=O)C1Cc2nccc(-c3cc(Cl)cc4c3O[C@@H](c3onc5c3CNCC5)C4)c2C1` (stereo partly drawn) [4-((R)-5-chloro-2-(4,5,6,7-tetrahydroisoxazolo[4,3-c]pyridin-3-yl)-2,3-dihydrobenzofuran-7-yl)-N,N-dimethyl-6,7-dihydro-5H-cyclopenta[b]pyridine-6-carboxamide] was 1000 to 10000 nM; that for `C[C@@H]1CN(C(=O)C2Cc3cc(Cl)cc(-c4ccnc5[nH]ccc45)c3O2)CCN1` (stereo partly drawn) [(5-chloro-7-(1H-pyrrolo[2,3-b]pyridin-4-yl)-2,3-dihydrobenzofuran-2-yl)((R)-3-methylpiperazin-1-yl)methanone] was 1000 to 10000 nM; that for `CC(=O)NC(C)c1cc2nccc(-c3cc(Cl)cc4c3O[C@@H](c3c5c(nn3C)CCNC5)C4)c2s1` (stereo partly drawn) [N-(1-(7-((R)-5-chloro-2-(2-methyl-4,5,6,7-tetrahydro-2H-pyrazolo[4,3-c]pyridin-3-yl)-2,3-dihydrobenzofuran-7-yl)thieno[3,2-b]pyridin-2-yl)ethyl)acetamide] was less than 1000 nM. Turning to `Clc1cc2c(c(-c3ncnc4ccsc34)c1)O[C@@H](c1onc3c1CNCC3)C2` [(R)-3-(5-chloro-7-(thieno[3,2-d]pyrimidin-4-yl)-2,3-dihydrobenzofuran-2-yl)-4,5,6,7-tetrahydroisoxazolo[4,3-c]pyridine], the concentration for half-maximal inhibition (IC50) was less than 1000 nM. The value for `OCCN1CCc2noc([C@H]3Cc4cc(Cl)cc(-c5ncnc6ccoc56)c4O3)c2C1` [(R)-2-(3-(5-chloro-7-(furo[3,2-d]pyrimidin-4-yl)-2,3-dihydrobenzofuran-2-yl)-6,7-dihydroisoxazolo[4,3-c]pyridin-5(4H)-yl)ethan-1-ol] was 1000 to 10000 nM; that for `O[C@@]1(c2cc3nccc(-c4cc(Cl)cc5c4O[C@@H](c4onc6c4CNCC6)C5)c3s2)CCOC1` [(S)-3-(7-((R)-5-chloro-2-(4,5,6,7-tetrahydroisoxazolo[4,3-c]pyridin-3-yl)-2,3-dihydrobenzofuran-7-yl)thieno[3,2-b]pyridin-2-yl)tetrahydrofuran-3-ol] was less than 1000 nM. The value for `O=C(C1Cc2cc(Cl)cc(-c3ccnc4[nH]ccc34)c2O1)N1CCNCC1` (centres unmarked) [(5-chloro-7-(1H-pyrrolo[2,3-b]pyridin-4-yl)-2,3-dihydrobenzofuran-2-yl)(piperazin-1-yl)methanone] was less than 1000 nM; that for `CC[C@@H](O)c1cc2nccc(-c3cc(Cl)cc4c3O[C@@](C)(c3onc5c3CNCC5)C4)c2s1` [(R)-1-(7-((R)-5-chloro-2-methyl-2-(4,5,6,7-tetrahydroisoxazolo[4,3-c]pyridin-3-yl)-2,3-dihydrobenzofuran-7-yl)thieno[3,2-b]pyridin-2-yl)propan-1-ol] was less than 1000 nM; that for `Cc1c[nH]c2nccc(-c3cc(Cl)cc4c3OC(C(=O)N3CCNCC3)C4)c12` (centres unmarked) [(5-chloro-7-(3-methyl-1H-pyrrolo[2,3-b]pyridin-4-yl)-2,3-dihydrobenzofuran-2-yl)(piperazin-1-yl)methanone] was 1000 to 10000 nM.

In turn, `CC(=O)NCc1cc2nccc(-c3cc(Cl)cc4c3O[C@@H](c3c5c(nn3C)CCNC5)C4)c2s1` [(R)-N-((7-(5-chloro-2-(2-methyl-4,5,6,7-tetrahydro-2H-pyrazolo[4,3-c]pyridin-3-yl)-2,3-dihydrobenzofuran-7-yl)thieno[3,2-b]pyridin-2-yl)methyl)acetamide] registered an IC50 of less than 1000 nM.

For `CNC(=O)CCc1cc2nccc(-c3cc(Cl)cc4c3O[C@@H](C(=O)N3CCNCC3)C4)c2s1` [(R)-3-(7-(5-chloro-2-(piperazine-1-carbonyl)-2,3-dihydrobenzofuran-7-yl)thieno[3,2-b]pyridin-2-yl)-N-methylpropanamide], the IC50 is less than 1000 nM. The compound `O=C(C1Cc2cc(Cl)cc(-c3ccnc4[nH]ccc34)c2O1)N1CCN(c2ccncn2)CC1` (centres unmarked) [(5-chloro-7-(1H-pyrrolo[2,3-b]pyridin-4-yl)-2,3-dihydrobenzofuran-2-yl)(4-(pyrimidin-4-yl)piperazin-1-yl)methanone] gave an IC50 of 1000 to 10000 nM.

`Clc1cc2c(c(-c3ccnc4ccsc34)c1)O[C@@H](c1onc3c1CNCC3)C2` [(R)-3-(5-chloro-7-(thieno[3,2-b]pyridin-7-yl)-2,3-dihydrobenzofuran-2-yl)-4,5,6,7-tetrahydroisoxazolo[4,3-c]pyridine] displayed an IC50 of less than 1000 nM.
